One data set deals with T1, aldose reductase (Sus scrofa, UniProt P80276).
T1 construct: swine lenses freeze-stored at -80°C were homogenized with distilled water and centrifuged at 10,000 G for 15 minutes; from tissue; host or cells: swine lens
The experiment in a line: Aldose reductase inhibitory action (method of S. Hayman et al., absorbance change at 340 nm). Format: biochemical. To be noted: swine lens enzyme, 3 mM dl-glyceraldehyde, 0.1 mM NADPH, pH 6.2, 25°C. The method, then:
An aldose reductase enzyme standard product was prepared from swine lens according to the method of S. Hayman et al. [Journal of Biological Chemistry, 240, 877-882 (1965)]. That is, swine lenses freeze-stored at -80°C were homogenized with distilled water and centrifuged at 10,000 G for 15 minutes. The supernatant was prepared into a 40% ammonium sulfate solution and subjected to centrifugation at 10,000 G for 10 minutes. The supernatant obtained was dialyzed overnight against a 0.05 M sodium chloride solution to give a dialyzed solution, which was used as an enzyme standard product.
The activity of aldose reductase was determined by the above-mentioned method of S. Hayman et al. That is, the above-mentioned enzyme solution (25 µl) and a drug solution (25 µl) dissolved in 1% DMSO at various concentrations were added to a 40 mM phosphate buffer (200 µl, pH 6.2) containing, at final concentrations, 0.4 M lithium sulfate, 0.1 mM NADPH (reduced type nicotinamide adenine dinucleotide phosphate) and 3 mM dl-glyceraldehyde as a substrate. The mixture was allowed to react at 25°C for 2 minutes and the changes in absorbance at 340 nm were determined with COBAS FARA II (manufactured by Roche). The changes in absorbance when 1% DMSO was added instead of the drug solution was taken as 100%, based on which 50% inhibition concentration (IC50) was calculated and shown in Table 1. […] The test drug number indicates the example number to be mentioned later. IC50 (M) means the concentration of the drug at which the aldose reductase activity is inhibited by 50% Table 1

Data set [1] concerns sorbitol accumulation in tissues. Nature of the data set: Inhibitory action on sorbitol accumulation in tissues of rats with experimental (streptozotocin) diabetes. Format: in vivo, Sprague-Dawley rats. To be noted: measured 3 hours after final administration, control taken as 100%; for Sorbitol accumulation (%) nerve: sciatic nerve. The method, then: Sprague-Dawley rats (male, 6 weeks old, 5-6 per group) were fasted for 18 hours and injected with streptozotocin (SIGMA, 60 mg/kg) via the tail vein under etherization to prepare rats with diabetes.
The various compounds were orally administered at 4, 8 and 24 hours after the injection of streptozotocin, at 10 mg/kg or 30 mg/kg as a 0.5% carboxymethylcellulose suspension. During the administrations, the rats were raised under free access to feed and water, and the sorbitol content of the tissues (erythrocytes, sciatic nerve, lens) was determined 3 hours after the final administration, according to the enzyme method of H.Y. Bergmeyer et al. [Methods of Enzymatic Analysis, vol. 3, 1323-1330 (1974)] with the use of SDH (sorbitol dehydrogenase) and NAD (β-nicotinamide adenine dinucleotide). The results (sorbitol accumulation) are expressed in percent (%) relative to the value of a control group administered with 0.5% carboxymethylcellulose solution (solvent) instead of the drug, which was taken as 100%.

A further data set concerns ICR mice. The experiment in a line: Acute toxicity after a single oral dose in mice. Format: in vivo. Particulars: 300 mg/kg orally, male ICR mice, observation for 14 days. The method, then:
Normal ICR mice (male, 7 weeks old, 5 per group) were fasted for 18 hours and the compound (300 mg/kg) of Example 33 was orally administered as a 0.5% carboxymethylcellulose suspension. To the control group, a 0.5% carboxymethylcellulose solution alone was orally administered, and observation was continued for 14 days thereafter, during which period the mice were allowed to take feed and water freely.

Where [2] appears, read: 10 mg/kg orally at 4, 8 and 24 hours after streptozotocin.
[3] abbreviates: 30 mg/kg orally at 4, 8 and 24 hours after streptozotocin.

Marks after values point to notes of the source that are not given here.

Consider `Cc1ccc2c(c1)N(Cc1nc3c(F)c(F)cc(F)c3s1)C(=O)C(CC(=O)O)O2` (stereo not drawn) [Example 35, 2-[4-(4,5,7-trifluorobenzothiazol-2-yl)methyl-6-methyl-3,4-dihydro-3-oxo-2H-1,4-benzoxazin-2-yl] acetic acid], for which the midpoint of inhibition against aldose reductase, the IC50, lay at 9.1 nM.
On the same count and under the same terms, the figure for `O=C(O)CC1Oc2ccccc2N(Cc2nc3cc(Cl)ccc3s2)C1=O` (stereo not drawn) [Example 25, 2-[4-(5-chlorobenzothiazol-2-yl)methyl-3,4-dihydro-3-oxo-2H-1,4-benzoxazin-2-yl]acetic acid] is 8.6 nM.
As to `Cc1ccc2c(c1)N(Cc1nc3c(F)c(F)ccc3s1)C(=O)C(CC(=O)O)O2` (stereo not drawn) [Example 36, 2-[4-(4,5-difluorobenzothiazol-2-yl)methyl-6-methyl-3,4-dihydro-3-oxo-2H-1,4-benzoxazin-2-yl]acetic acid], in data set [1] (setting [2]), the “Sorbitol accumulation (%) erythrocytes” value is on record as 17.3** %, the “Sorbitol accumulation (%) lens” value was 60.7* % and the “Sorbitol accumulation (%) nerve” value was 23.5** %. Moreover, at aldose reductase, the IC50 (as a rule, the concentration at which inhibition is half-maximal) stood at 9.2 nM.
For `O=C(O)CC1Oc2ccccc2N(Cc2nc3ccc(F)c(F)c3s2)C1=O` (stereo not drawn) [Example 33, 2-[4-(6,7-difluorobenzothiazol-2-yl)methyl-3,4-dihydro-3-oxo-2H-1,4-benzoxazin-2-yl]acetic acid], the death entry in the data set with ICR mice was “no case of death”. Further, the weights result in the data set on ICR mice (compared with control group) is recorded as “showed transition in the same manner as in the control group”.
For `O=C(O)CC1Oc2ccc(Cl)cc2N(Cc2nc3c(F)c(F)cc(F)c3s2)C1=O` (stereo not drawn) [Example 38, 2-[6-chloro-4-(4,5,7-trifluorobenzothiazol-2-yl)methyl-3,4-dihydro-3-oxo-2H-1,4-benzoxazin-2-yl]acetic acid], in data set [1] (setting [2]), the “Sorbitol accumulation (%) erythrocytes” value is on record as 24.6** %, the “Sorbitol accumulation (%) lens” value is recorded as 44.1** % and the “Sorbitol accumulation (%) nerve” value is 0.0** %.
`O=C(O)CC1Oc2ccc(F)cc2N(Cc2nc3cc(F)cc(F)c3s2)C1=O` (stereo not drawn) [Example 27, 2-[6-fluoro-4-(5,7-difluorobenzothiazol-2-yl)methyl-3,4-dihydro-3-oxo-2H-1,4-benzoxazin-2-yl]acetic acid] returned an IC50 on aldose reductase of 9.9 nM.
Regarding `O=C(O)CC1Oc2ccccc2N(Cc2nc3cc(F)cc(F)c3s2)C1=O` (stereo not drawn) [Example 32, 2-[4-(5,7-difluorobenzothiazol-2-yl)methyl-3,4-dihydro-3-oxo-2H-1,4-benzoxazin-2-yl]acetic acid], in data set [1] (setting [2]), the “Sorbitol accumulation (%) erythrocytes” value is listed as 27.2** %, the “Sorbitol accumulation (%) lens” value was 39.1** % and the “Sorbitol accumulation (%) nerve” value is 11.4** %.
`O=C(O)CC1Oc2ccccc2N(Cc2nc3c(Cl)c(Cl)ccc3s2)C1=O` (stereo not drawn) [Example 34, 2-[4-(4,5-dichlorobenzothiazol-2-yl)methyl-3,4-dihydro-3-oxo-2H-1,4-benzoxazin-2-yl]acetic acid]: the IC50 on aldose reductase worked out at 9.9 nM. In other words, the single-digit nanomolar range.
Take `Cc1ccc2c(c1)OC(CC(=O)O)C(=O)N2Cc1nc2cc(F)cc(F)c2s1` (stereo not drawn) [Example 43, 2-[4-(5,7-difluorobenzothiazol-2-yl)methyl-7-methyl-3,4-dihydro-3-oxo-2H-1,4-benzoxazin-2-yl]acetic acid]: in data set [1] (setting [2]), the “Sorbitol accumulation (%) erythrocytes” value is 34.9** %, the “Sorbitol accumulation (%) lens” value is recorded as 100.9% and the “Sorbitol accumulation (%) nerve” value was 60.6** %.
As to `CC(C)c1cccc2c1OC(C(C)C)C(=S)N2CC(=O)O` (stereo not drawn) [Compound A, 3,4-dihydro-2,8-diisopropyl-3-thioxo-2H-1,4-benzoxazine-4-acetic acid, reference compound], in data set [1] (setting [3]), the “Sorbitol accumulation (%) erythrocytes” value is listed as 53.7* %, the “Sorbitol accumulation (%) lens” value came to 87.3% and the “Sorbitol accumulation (%) nerve” value was 54.9** %.
As to `O=C(O)CC1Oc2cc(F)ccc2N(Cc2nc3c(F)c(F)cc(F)c3s2)C1=O` (stereo not drawn) [Example 44, 2-[7-fluoro-4-(4,5,7-trifluorobenzothiazol-2-yl)methyl-3,4-dihydro-3-oxo-2H-1,4-benzoxazin-2-yl]acetic acid], in data set [1] (setting [2]), the “Sorbitol accumulation (%) erythrocytes” value is 25.9** %, the “Sorbitol accumulation (%) lens” value was 52.0** % and the “Sorbitol accumulation (%) nerve” value is on record as 4.7 ** %.
Regarding `O=C(O)CC1Oc2ccc(F)cc2N(Cc2nc3c(F)c(F)ccc3s2)C1=O` (stereo not drawn) [Example 26, 2-[6-fluoro-4-(4,5-difluorobenzothiazol-2-yl)methyl-3,4-dihydro-3-oxo-2H-1,4-benzoxazin-2-yl]acetic acid], the IC50 on aldose reductase was found to be 9.6 nM.
For `O=C(O)CC1Oc2ccc(F)cc2N(Cc2nc3c(Cl)c(Cl)ccc3s2)C1=O` (stereo not drawn) [Example 28, 2-[4-(4,5-dichlorobenzothiazol-2-yl)methyl-6-fluoro-3,4-dihydro-3-oxo-2H-1,4-benzoxazin-2-yl]acetic acid], in data set [1] (setting [2]), the “Sorbitol accumulation (%) erythrocytes” value is 16.3** %, the “Sorbitol accumulation (%) lens” value amounted to 89.3% and the “Sorbitol accumulation (%) nerve” value is 56.0** %.
In the case of `O=C(O)CC1Oc2ccccc2N(Cc2nc3c(F)c(F)cc(F)c3s2)C1=O` (stereo not drawn) [Example 30, 2-[4-(4,5,7-trifluorobenzothiazol-2-yl)methyl-3,4-dihydro-3-oxo-2H-1,4-benzoxazin-2-yl]acetic acid], in data set [1] (setting [2]), the “Sorbitol accumulation (%) erythrocytes” value was 22.2** %, the “Sorbitol accumulation (%) lens” value is reported as 45.2** % and the “Sorbitol accumulation (%) nerve” value is recorded as 1.0** %.
`O=C(O)CC1Oc2ccc(Cl)cc2N(Cc2nc3c(F)c(F)ccc3s2)C1=O` (stereo not drawn) [Example 39, 2-[6-chloro-4-(4,5-difluorobenzothiazol-2-yl)methyl-3,4-dihydro-3-oxo-2H-1,4-benzoxazin-2-yl]acetic acid] gave an IC50 against aldose reductase of 9.9 nM.
For `O=C(O)CC1Oc2cc(F)ccc2N(Cc2nc3c(F)c(F)ccc3s2)C1=O` (stereo not drawn) [Example 45, 2-[7-fluoro-4-(4,5-difluorobenzothiazol-2-yl)methyl-3,4-dihydro-3-oxo-2H-1,4-benzoxazin-2-yl]acetic acid], in data set [1] (setting [2]), the “Sorbitol accumulation (%) erythrocytes” value was 32.4** %, the “Sorbitol accumulation (%) lens” value is listed as 71.8* % and the “Sorbitol accumulation (%) nerve” value is 56.8** %.

The values above are taken from EP0738727B1, “1,4-BENZOXAZINE-2-ACETIC ACID COMPOUND, PROCESS FOR PRODUCING THE SAME, AND USE THEREOF” (Senju Pharmaceutical Co., Ltd., priority 1994, dated 1995).
